{"source": "PubChem BioAssay AID2060512", "about": "(Molecular Pharmacology Branch, DTP, NCI, 2025);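 further: spheroids exposed to drugs for 7 days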;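 on viability, T/C: 100% = DMSO vehicle control viability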", "tested_on": "186277-243-T-J2-PDC complex spheroid viability", "test": "Anticancer human tumor 186277-243-T-J2-PDC patient-derived colon adenocarcinoma cell line growth inhibition [GQUAD]", "conditions": "for IC50: curve of first compound; for viability, T/C: stronger effect = lower value", "outline": "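Multi-cell-type spheroids of tumor cells with HUVEC and mesenchymal stem cells, treated with drug combinations. Concentrations descend in half-log steps from near clinical Cmax, or from 10 microM where Cmax is unknown; viability read-out.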", "key": {"[1]": {"conditions": "second compound 0.0316 µM, first compound 0.0316 µM"}, "[2]": {"conditions": "second compound 0.0316 µM, first compound 0.1 µM"}, "[3]": {"conditions": "second compound 0.0316 µM, first compound 0.316 µM"}, "[4]": {"conditions": "second compound 0.0316 µM, first compound 1 µM"}, "[5]": {"conditions": "second compound 0.0316 µM, first compound 3.16 µM"}, "[6]": {"conditions": "second compound 0.0316 µM, first compound 10 µM"}, "[7]": {"conditions": "second compound 0.1 µM, first compound 0.0316 µM"}, "[8]": {"conditions": "second compound 0.1 µM, first compound 0.1 µM"}, "[9]": {"conditions": "second compound 0.1 µM, first compound 0.316 µM"}, "[10]": {"conditions": "second compound 0.1 µM, first compound 1 µM"}, "[11]": {"conditions": "second compound 0.1 µM, first compound 3.16 µM"}, "[12]": {"conditions": "second compound 0.1 µM, first compound 10 µM"}, "[13]": {"conditions": "second compound 0.316 µM, first compound 0.0316 µM"}, "[14]": {"conditions": "second compound 0.316 µM, first compound 0.1 µM"}, "[15]": {"conditions": "second compound 0.316 µM, first compound 0.316 µM"}, "[16]": {"conditions": "second compound 0.316 µM, first compound 1 µM"}, "[17]": {"conditions": "second compound 0.316 µM, first compound 3.16 µM"}, "[18]": {"conditions": "second compound 0.316 µM, first compound 10 µM"}, "[19]": {"conditions": "second compound 1 µM, first compound 0.0316 µM"}, "[20]": {"conditions": "second compound 1 µM, first compound 0.1 µM"}, "[21]": {"conditions": "second compound 1 µM, first compound 0.316 µM"}, "[22]": {"conditions": "second compound 1 µM, first compound 1 µM"}, "[23]": {"conditions": "second compound 1 µM, first compound 3.16 µM"}, "[24]": {"conditions": "second compound 1 µM, first compound 10 µM"}, "[25]": {"conditions": "second compound 3.16 µM, first compound 0.0316 µM"}, "[26]": {"conditions": "second compound 3.16 µM, first compound 0.1 µM"}, "[27]": {"conditions": "second compound 3.16 µM, first compound 0.316 µM"}, "[28]": {"conditions": "second compound 3.16 µM, first compound 1 µM"}, "[29]": {"conditions": "second compound 3.16 µM, first compound 3.16 µM"}, "[30]": {"conditions": "second compound 3.16 µM, first compound 10 µM"}, "[31]": {"conditions": "second compound 10 µM, first compound 0.0316 µM"}, "[32]": {"conditions": "second compound 10 µM, first compound 0.1 µM"}, "[33]": {"conditions": "second compound 10 µM, first compound 0.316 µM"}, "[34]": {"conditions": "second compound 10 µM, first compound 1 µM"}, "[35]": {"conditions": "second compound 10 µM, first compound 3.16 µM"}, "[36]": {"conditions": "second compound 10 µM, first compound 10 µM"}}}
{"smiles": "CC(C)n1c(=O)n(C)c2cnc3cc(F)c(-c4ccc(OCCCN5CCCCC5)nc4)cc3c21", "note": "+ Cc1cnc(CNC(=O)c2c(=O)c3ccc(N4CCCN(C)CC4)nc3n3c2sc2ccccc23)cn1", "values": [{"measurement": "IC50", "setting": "second compound 0.0316 µM", "value": "> 10", "unit": "µM"}, {"measurement": "IC50", "setting": "second compound 0.1 µM", "value": "> 10", "unit": "µM"}, {"measurement": "IC50", "setting": "second compound 0.316 µM", "value": 3.6, "unit": "µM"}, {"measurement": "IC50", "setting": "second compound 1 µM", "value": 0.144, "unit": "µM"}, {"measurement": "IC50", "setting": "second compound 3.16 µM", "value": "< 0.0316", "unit": "µM"}, {"measurement": "IC50", "setting": "second compound 10 µM", "value": "< 0.0316", "unit": "µM"}, {"measurement": "viability, T/C", "setting": "[1]", "value": 90.6, "unit": "%"}, {"measurement": "viability, T/C", "setting": "[2]", "value": 79.9, "unit": "%"}, {"measurement": "viability, T/C", "setting": "[3]", "value": 73.5, "unit": "%"}, {"measurement": "viability, T/C", "setting": "[4]", "value": 69.3, "unit": "%"}, {"measurement": "viability, T/C", "setting": "[5]", "value": 75, "unit": "%"}, {"measurement": "viability, T/C", "setting": "[6]", "value": 76.2, "unit": "%"}, {"measurement": "viability, T/C", "setting": "[7]", "value": 70.4, "unit": "%"}, {"measurement": "viability, T/C", "setting": "[8]", "value": 54.4, "unit": "%"}, {"measurement": "viability, T/C", "setting": "[9]", "value": 70.6, "unit": "%"}, {"measurement": "viability, T/C", "setting": "[10]", "value": 73.1, "unit": "%"}, {"measurement": "viability, T/C", "setting": "[11]", "value": 59.4, "unit": "%"}, {"measurement": "viability, T/C", "setting": "[12]", "value": 46.5, "unit": "%"}, {"measurement": "viability, T/C", "setting": "[13]", "value": 67.8, "unit": "%"}, {"measurement": "viability, T/C", "setting": "[14]", "value": 67.6, "unit": "%"}, {"measurement": "viability, T/C", "setting": "[15]", "value": 48.8, "unit": "%"}, {"measurement": "viability, T/C", "setting": "[16]", "value": 70.8, "unit": "%"}, {"measurement": "viability, T/C", "setting": "[17]", "value": 46.5, "unit": "%"}, {"measurement": "viability, T/C", "setting": "[18]", "value": 41.2, "unit": "%"}, {"measurement": "viability, T/C", "setting": "[19]", "value": 49.2, "unit": "%"}, {"measurement": "viability, T/C", "setting": "[20]", "value": 46.3, "unit": "%"}, {"measurement": "viability, T/C", "setting": "[21]", "value": 52.2, "unit": "%"}, {"measurement": "viability, T/C", "setting": "[22]", "value": 54.8, "unit": "%"}, {"measurement": "viability, T/C", "setting": "[23]", "value": 52.3, "unit": "%"}, {"measurement": "viability, T/C", "setting": "[24]", "value": 42.5, "unit": "%"}, {"measurement": "viability, T/C", "setting": "[25]", "value": 43.7, "unit": "%"}, {"measurement": "viability, T/C", "setting": "[26]", "value": 39.8, "unit": "%"}, {"measurement": "viability, T/C", "setting": "[27]", "value": 49.5, "unit": "%"}, {"measurement": "viability, T/C", "setting": "[28]", "value": 39.7, "unit": "%"}, {"measurement": "viability, T/C", "setting": "[29]", "value": 40.6, "unit": "%"}, {"measurement": "viability, T/C", "setting": "[30]", "value": 36.4, "unit": "%"}, {"measurement": "viability, T/C", "setting": "[31]", "value": 31.8, "unit": "%"}, {"measurement": "viability, T/C", "setting": "[32]", "value": 47.5, "unit": "%"}, {"measurement": "viability, T/C", "setting": "[33]", "value": 40, "unit": "%"}, {"measurement": "viability, T/C", "setting": "[34]", "value": 39.7, "unit": "%"}, {"measurement": "viability, T/C", "setting": "[35]", "value": 38.3, "unit": "%"}, {"measurement": "viability, T/C", "setting": "[36]", "value": 35.6, "unit": "%"}]}
{"smiles": "CC1COCCN1c1cc(C2(O)CC3CCC(C2)O3)c2cnn(-c3ccn[nH]3)c2n1", "note": "(centres undefined) + Cc1cnc(CNC(=O)c2c(=O)c3ccc(N4CCCN(C)CC4)nc3n3c2sc2ccccc23)cn1", "values": [{"measurement": "IC50", "setting": "second compound 0.0316 µM", "value": "< 0.0316", "unit": "µM"}, {"measurement": "IC50", "setting": "second compound 0.1 µM", "value": "< 0.0316", "unit": "µM"}, {"measurement": "IC50", "setting": "second compound 0.316 µM", "value": "< 0.0316", "unit": "µM"}, {"measurement": "IC50", "setting": "second compound 1 µM", "value": "< 0.0316", "unit": "µM"}, {"measurement": "IC50", "setting": "second compound 3.16 µM", "value": "< 0.0316", "unit": "µM"}, {"measurement": "IC50", "setting": "second compound 10 µM", "value": "< 0.0316", "unit": "µM"}, {"measurement": "viability, T/C", "setting": "[1]", "value": 31.3, "unit": "%"}, {"measurement": "viability, T/C", "setting": "[2]", "value": 13.1, "unit": "%"}, {"measurement": "viability, T/C", "setting": "[3]", "value": 5.91, "unit": "%"}, {"measurement": "viability, T/C", "setting": "[4]", "value": 3.51, "unit": "%"}, {"measurement": "viability, T/C", "setting": "[5]", "value": 5.56, "unit": "%"}, {"measurement": "viability, T/C", "setting": "[6]", "value": 3.63, "unit": "%"}, {"measurement": "viability, T/C", "setting": "[7]", "value": 38.7, "unit": "%"}, {"measurement": "viability, T/C", "setting": "[8]", "value": 16.4, "unit": "%"}, {"measurement": "viability, T/C", "setting": "[9]", "value": 8.6, "unit": "%"}, {"measurement": "viability, T/C", "setting": "[10]", "value": 4.53, "unit": "%"}, {"measurement": "viability, T/C", "setting": "[11]", "value": 4.78, "unit": "%"}, {"measurement": "viability, T/C", "setting": "[12]", "value": 2.97, "unit": "%"}, {"measurement": "viability, T/C", "setting": "[13]", "value": 37.7, "unit": "%"}, {"measurement": "viability, T/C", "setting": "[14]", "value": 20.9, "unit": "%"}, {"measurement": "viability, T/C", "setting": "[15]", "value": 13.4, "unit": "%"}, {"measurement": "viability, T/C", "setting": "[16]", "value": 6.49, "unit": "%"}, {"measurement": "viability, T/C", "setting": "[17]", "value": 4.71, "unit": "%"}, {"measurement": "viability, T/C", "setting": "[18]", "value": 2.1, "unit": "%"}, {"measurement": "viability, T/C", "setting": "[19]", "value": 29.5, "unit": "%"}, {"measurement": "viability, T/C", "setting": "[20]", "value": 31.5, "unit": "%"}, {"measurement": "viability, T/C", "setting": "[21]", "value": 16.4, "unit": "%"}, {"measurement": "viability, T/C", "setting": "[22]", "value": 8.79, "unit": "%"}, {"measurement": "viability, T/C", "setting": "[23]", "value": 5.94, "unit": "%"}, {"measurement": "viability, T/C", "setting": "[24]", "value": 0.5, "unit": "%"}, {"measurement": "viability, T/C", "setting": "[25]", "value": 36.2, "unit": "%"}, {"measurement": "viability, T/C", "setting": "[26]", "value": 31, "unit": "%"}, {"measurement": "viability, T/C", "setting": "[27]", "value": 19.5, "unit": "%"}, {"measurement": "viability, T/C", "setting": "[28]", "value": 10.8, "unit": "%"}, {"measurement": "viability, T/C", "setting": "[29]", "value": 5.54, "unit": "%"}, {"measurement": "viability, T/C", "setting": "[30]", "value": 0.33, "unit": "%"}, {"measurement": "viability, T/C", "setting": "[31]", "value": 34.9, "unit": "%"}, {"measurement": "viability, T/C", "setting": "[32]", "value": 28.4, "unit": "%"}, {"measurement": "viability, T/C", "setting": "[33]", "value": 23.2, "unit": "%"}, {"measurement": "viability, T/C", "setting": "[34]", "value": 10.9, "unit": "%"}, {"measurement": "viability, T/C", "setting": "[35]", "value": 6.86, "unit": "%"}, {"measurement": "viability, T/C", "setting": "[36]", "value": 0.13, "unit": "%"}]}
